The record followed here is paper PMC13205134, “Design, synthesis, and biological properties exhibited by 1,2,3-triazole based Grp94-selective inhibitors” (European journal of medicinal chemistry, 2025).

Several values for one entry are separate records, joined by “and”; a condition that tells them apart may be missing. Identical values can stand only once. Entries after “also recorded” stand apart in the source; their conditions may differ. Bounds are passed on as bounds.

For one test, the system named is integrin α2. The test is described as follows: Western blot of integrin α2 in MDA-MB-231 cells. It is filed as cell-based. The note with it: 5 μM, 24 h. The procedure:
(§1) MDA-MB-231 cells were grown in a water jacketed incubator at 37 °C with 5 % CO2. Cells were cultured in DMEM (Corning) media supplemented with 10 % heat-inactivated fetal bovine serum (FBS, Gibco, 10438-026) and 1 % Penicillin-Streptomycin (VWR, K952-100 mL). Cells were seeded in clear, flat bottom 6-well plates with each well containing 500,000 cells and grown to 80 % confluency. The medium was replaced with fresh DMEM that contains compounds of interest at the indicated concentrations or vehicle control, and cells were incubated for 24 h. Following treatment, MDA-MB-231 cells were then lysed in RIPA buffer supplemented with protease and phosphatase inhibitors. Protein concentration in lysates were determined by BCA assay (Thermo). Equal amounts of protein were separated by SDS-PAGE on 10 % polyacrylamide gels and […] onto nitrocellulose membranes. Transfer efficiency and total protein loading were confirmed by Ponceau staining. Membranes were blocked with 6 % nonfat dry milk and probed with primary antibodies against GAPDH (Cell Signaling, 14C10), Hsp70 (Cell Signaling, C92F3A), Akt, and Integrin α2 (Cell Signaling, D8V7H) each diluted 1:1000. Secondary antibodies were also used at 1:1000 (Southern Biotech), immunoblots were developed using ECL substrate (Amersham, 45-000-999) and visualized on a ChemiDoc Imaging System (BioRad).
In general terms: Immunoblotting shows a protein as a band on a membrane.

Another test has as its target Hsp90α (Homo sapiens, UniProt P07900). As to the kind of experiment: Competitive binding fluorescence polarization (FP) assay, Hsp90α. As to conditions: FITC-GDA tracer, mean of triplicates ± SD, read-out: Apparent Kd Hsp90α. The procedure:
The Fluorescence Polarization Assay (FP) was performed in 96-well flat-bottom plates (Santa Cruz Biotechnology) with a final volume of 100 μL per well. The assay buffer consisted of 20 mM HEPES, 50 mM KCl, 10.5 mM MgCl2, 20 mM Na2MoO4, 0.01 % NP-40 detergent (NP-40), and pH 7.3 with fresh 2 mM dithiothreitol (DTT) and 0.1 mg/mL bovine γ-globulin (BGG). Each well contained 10 nM of Hsp90α or Grp94 (Enzo Biochem Inc.) and 6 nM of FITC-GDA (fluorescent tracer, stock in DMSO). Compounds were tested in triplicate at final concentrations of 100 μM, 10 μM, 1 μM, 0.1 μM and 0.01 μM with each final concentration containing 1 % DMSO. Each plate included control wells containing: (i) buffer only (background polarization), (ii) protein plus tracer (maximum polarization control), and (iii) tracer only (minimum polarization control). Plates were incubated on a rocker at 4 °C for 24 h. Fluorescence polarization (mP units) was measured at 37 °C using excitation and emission wavelengths of 485 and 528 nm, respectively. Apparent Kd values were determined via calculations from the polarization data obtained at which the tracer was displaced by 50 % by the compounds of interest.
[I50] = concentration of free inhibitor at 50% inhibition, [L50] = concentration of free fluorescence labeled ligand molecule at 50% inhibition, [P0] = concentration of free protein at 0% inhibition, K = dissociation constant of the protein−ligand complex.^4

In a further test the test system is Grp94. As to the kind of experiment: Competitive binding fluorescence polarization (FP) assay, Grp94. As to conditions: for Polarization Read 1 / Polarization Read 2 / Polarization Read 3: replicate wells, protein not given. The procedure:
The Fluorescence Polarization Assay (FP) was performed in 96-well flat-bottom plates (Santa Cruz Biotechnology) with a final volume of 100 μL per well. […] Each well contained 10 nM of Hsp90α or Grp94 (Enzo Biochem Inc.) and 6 nM of FITC-GDA (fluorescent tracer, stock in DMSO). Compounds were tested in triplicate at final concentrations of 100 μM, 10 μM, 1 μM, 0.1 μM and 0.01 μM with each final concentration containing 1 % DMSO. Each plate included control wells containing: (i) buffer only (background polarization), (ii) protein plus tracer (maximum polarization control), and (iii) tracer only (minimum polarization control). Plates were incubated on a rocker at 4 °C for 24 h.
Background: In fluorescence polarisation assays a small probe gives low polarisation when free and higher when bound to something large.

The test system of another test is Hsp70. As to the kind of experiment: Western blot of Hsp70 in MDA-MB-231 cells. It is filed as cell-based. The note with it: 24 h. The procedure: as §1
The next test concerns Akt. The test is described as follows: Western blot of Akt in MDA-MB-231 cells. Format: cell-based. As to conditions: 24 h. The procedure:
as §1

For another test, the system named is wild-type myocilin. The test is described as follows: Cellular assay for wild-type myocilin in dox-inducible trabecular meshwork (TM-1) cells. Format: cell-based, human. As to conditions: higher dose (30 μM), 24 h, Western blot. The procedure: (§2) Immortalized human trabecular meshwork (TM-1) cells stably transduced with WT or Y437H myocilin (50 MOI) were grown in low-glucose (1 g/L) Dulbecco’s modified Eagle medium with glutamine (DMEM, Gibco) supplemented with 10 % FBS (Hyclone), 1–2 % PS (Gibco) at 37 °C, and 200 μg/mL hygromycin (Corning), TM-1 cells were seeded in 6 well plates at equivalent cell counts/replicate. The following day, myocilin expression was induced by treating the cells with 2 μg/mL doxycycline (dox, Thermo-Scientific) in serum-free media. After 48 h, media was replaced with serum-free media containing 2 μg/mL dox to induce myocilin expression and 47 at the designated concentration for an additional 24 h.
Cells were lysed using lysis buffer (100 mM Tris-HCl pH 7.4, 3 mM EGTA, 5 mM MgCl2, 0.5 % Triton X 100) supplemented with 0.6 mM phenylmethylsulfonyl fluoride, and a 1:100 v/v protease inhibitor cocktail containing complete EDTA-free protease inhibitor (Roche) and 1 % (v/v) phosphatase inhibitor cocktails II and III (Sigma-Aldrich). Cells lysed by rocking in lysis buffer for ~2 h at 4 °C. […] Protein concentration of the detergent-soluble fractions was determined by BCA assay (Pierce).
The detergent-soluble samples were prepared in equal protein concentration in 5X Laemmli buffer containing 5–10 % (v/v) β-mercaptoethanol. […] Quantification of protein bands on Western blots was performed using ImageLab (Bio-Rad). […]

The test system of another test is Y437H myocilin. As to the kind of experiment: Cellular assay for mutant myocilin in dox-inducible trabecular meshwork (TM-1) cells. It is filed as cell-based, human. The procedure: as §2
Cells were lysed using lysis buffer (100 mM Tris-HCl pH 7.4, 3 mM EGTA, 5 mM MgCl2, 0.5 % Triton X 100) supplemented with 0.6 mM phenylmethylsulfonyl fluoride, and a 1:100 v/v protease inhibitor cocktail containing complete EDTA-free protease inhibitor (Roche) and 1 % (v/v) phosphatase inhibitor cocktails II and III (Sigma-Aldrich). Cells lysed by rocking in lysis buffer for ~2 h at 4 °C. Detergent-soluble and detergent insoluble fractions were separated by centrifugation. Protein concentration of the detergent-soluble fractions was determined by BCA assay (Pierce).
The detergent-soluble samples were prepared in equal protein concentration in 5X Laemmli buffer containing 5–10 % (v/v) β-mercaptoethanol. The samples were heated at 95 °C for 5 min and loaded on 12 % Tris-glycine gels. The gels were then transferred to methanol-activated PVDF membranes using the Trans-blot Turbo transfer system (Bio-Rad). […] Quantification of protein bands on Western blots was performed using ImageLab (Bio-Rad). Measurements of band density were normalized to actin loading control within each experiment, and the statistical significance was determined with one-way ANOVA with GraphPad Prism.

With `CCCc1ccccc1Cc1cnnn1CCc1c(Cl)c(O)cc(O)c1C(=O)OC` [Compound 47, methyl 3-chloro-4,6-dihydroxy-2-(2-(5-(2-propylbenzyl)-1H-1,2,3-triazol-1-yl)ethyl)benzoate], the “levels of Integrin α2” value with integrin α2 is given as “induced the degradation of integrin α2; also recorded: reduced the levels of Integrin α2”. For the same compound, the Kd at Hsp90α is 9.17 ± 0.86 µM. The “Polarization Read 1” value in the test with Grp94 (0.01 µM) is 298 and 289 and 285; with Grp94 (0.1 µM), 247 and 250 and 234; in the test on Grp94 (1 µM) it was 189 and 179 and 182; in the test on Grp94 (10 µM), 170 and 191 and 174. For the same compound, the “Polarization Read 2” value is 278 and 288 and 270 in the test with Grp94 (0.01 µM); 234 and 231 and 237 with Grp94 (0.1 µM); 178 and 177 and 180 in the test with Grp94 (1 µM); 172 and 178 and 176 in the test with Grp94 (10 µM). Also, the “Polarization Read 3” value in the test with Grp94 (0.01 µM) was 275 and 284 and 279; in the test with Grp94 (0.1 µM), 220 (2×) and 210; with Grp94 (1 µM), 185 (2×) and 186; in the test with Grp94 (10 µM) it was 169 and 185 and 177. Besides, in the test with Grp94 (Grp94 affinity, relative to first generation BnIm), the “improvement in affinity compared to BnIm” value turned out to be 15 fold. The “improvement in affinity compared to BnPh” value in the test with Grp94 (Grp94 affinity, relative to second generation BnPh) was determined as 8 fold. Besides, in the test with Grp94 (Grp94 affinity, relative to the 2-ethyl analog), the “increase in affinity on extension of ethyl to propyl group” value was determined as 10 fold. Further, the “Fold selective for Grp94” value with Grp94 (selectivity over Hsp90α, n.s. = non-selective) stood at 121 fold. The Hsp70 expression entry in the test with Hsp70 is recorded as “does not induce Hsp70 expression”. Moreover, the “effect on Akt (cytosolic Hsp90 client protein)” value with Akt is on record as “did not affect Akt”. Moreover, the wild-type myocilin expression entry with wild-type myocilin is on record as “statistically significant decrease”. Moreover, the Y437H-mutant myocilin levels result in the test on Y437H myocilin (3 μM, 24 h, TM-1 cells, Western blot) is listed as “statistically significant reduction”. Besides, in the test with Y437H myocilin (30 μM, 24 h, TM-1 cells Y437H myocilin, Western blot), the “reduction of levels of intracellular myocilin” value is recorded as at least 50%. In addition, in the test on Y437H myocilin (human trabecular meshwork cells, concentration not given), the “intracellular accumulation of mutant myocilin” value is “reduced the intracellular accumulation of mutant myocilin”.
